Test results as given in patent US11530204B2, “Biocatalytic synthesis of cryptophycin anticancer agents” (priority 2019, dated 2022).

What was measured:
[1] = tested on: HCT-116 human colorectal cancer cell line; assay: IC50 in HCT-116 human colorectal cancer cell line; assay type: cell-based; conditions: for IC50: Homo sapiens
Experimental: Each of the cryptophycin analogs was assessed using a zone assay as a relative comparison of potency over a variety of cell lines (see Table 1), and the IC50 for each analog was determined in the HCT-116 human colorectal cancer cell line.

[2] = tested on: platinum-resistant ovarian cancer; conditions: cited from earlier work

| SMILES | IC50 [1] [nM] | other results |
| --- | --- | --- |
| COc1ccc(C[C@H]2NC(=O)/C=C/C[C@@H]([C@H](C)/C=C/c3cnn(C)c3)OC(=O)[C@H](CC(C)C)OC(=O)[C@H](C)CNC2=O)cc1Cl [4 methyl pyrazole, (3S,6R,10R,16S,E)-10-(3-chloro-4-methoxybenzyl)-3-isobutyl-6-methyl-16-((R,E)-4-(1-methyl-1H-pyrazol-4-yl)but-3-en-2-yl)-1,4-dioxa-8,11-diazacyclohexadec-13-ene-2,5,9,12-tetraone] | – | potency in words [1]: low pico-molar |
| COc1ccc(C[C@H]2NC(=O)/C=C/C[C@@H]([C@H](C)/C=C/c3cccnc3)OC(=O)[C@H](CC(C)C)OC(=O)[C@H](C)CNC2=O)cc1Cl [3 pyridyl, (3S,6R,10R,16S,E)-10-(3-chloro-4-methoxybenzyl)-3-isobutyl-6-methyl-16-((R,E)-4-(pyridin-3-yl)but-3-en-2-yl)-1,4-dioxa-8,11-diazacyclohexadec-13-ene-2,5,9,12-tetraone] | 0.86 | – |
| COc1ccc(C[C@H]2NC(=O)/C=C/C[C@@H]([C@H](C)/C=C/c3ccncc3)OC(=O)[C@H](CC(C)C)OC(=O)[C@H](C)CNC2=O)cc1Cl [4 pyridyl, (3S,6R,10R,16S,E)-10-(3-chloro-4-methoxybenzyl)-3-isobutyl-6-methyl-16-((R,E)-4-(pyridin-4-yl)but-3-en-2-yl)-1,4-dioxa-8,11-diazacyclohexadec-13-ene-2,5,9,12-tetraone] | 0.51 | – |
| COc1ccc(C[C@H]2NC(=O)/C=C/C[C@@H]([C@H](C)/C=C/c3ccccn3)OC(=O)[C@H](CC(C)C)OC(=O)[C@H](C)CNC2=O)cc1Cl [2 pyridyl, (3S,6R,10R,16S,E)-10-(3-chloro-4-methoxybenzyl)-3-isobutyl-6-methyl-16-((R,E)-4-(pyridin-2-yl)but-3-en-2-yl)-1,4-dioxa-8,11-diazacyclohexadec-13-ene-2,5,9,12-tetraone] | 102 | – |
| COc1ccc(C[C@H]2NC(=O)/C=C/C[C@@H]([C@H](C)[C@H]3O[C@@H]3c3ccccc3)OC(=O)[C@H](CC(C)C)OC(=O)C(C)(C)CNC2=O)cc1Cl [cryptophycin 52] | – | dose-limiting toxicity ([2]; clinical trials): dose-limiting peripheral neuropathy; clinical outcome ([2]; platinum-resistant ovarian cancer): significant disease stabilization |
